Measurements from patent US20050143357A1 (priority 2002, published 2005).

Assays:
[1] = tested on: upstream regulatory portion of the VDUP-1; experiment: VDUP-1 regulatory region luciferase reporter assay in transiently transfected LNCaP cells; type: cell-based, human; conditions: VDUP-1 regulatory portion fused to luceferase gene, different time points, luminometer
Protocol: A human cell line, LNCaP was transiently transfected with a DNA vector composed of the upstream regulatory portion of the VDUP-1 fused to the gene encoding luceferase. The procedures to carry out transfection were essentially as described in example 2. At different time points a steroid with androgen properties, exemplified as R1881, were added to cell cultures, as was calcitriol (vitamin D). At different time points, luciferace activity in cell extracts was measured using a luminometer. The outcome of this experiment was that the level of luceferase was decreased by the steroid and was increased by vitamin D.

5 α-reduotase = conditions: once it enters prostate cells, by 5 α-reduotase; cited from earlier work

| Structure (SMILES) | level of luceferase (luciferace activity in cell extracts) [1] | fraction converted to dihydrotestosterone (DHT) (5 α-reduotase) |
| --- | --- | --- |
| C=C1/C(=C\C=C2/CCC[C@]3(C)[C@@H]([C@H](C)CCCC(C)(C)O)CC[C@@H]23)C[C@@H](O)C[C@@H]1O [calcitriol] | increased | – |
| C[C@]12CC[C@H]3[C@@H](CCC4=CC(=O)CC[C@@]43C)[C@@H]1CC[C@@H]2O [Testosterone] | – | about 90% |
| C[C@]1(O)CC[C@H]2[C@@H]3CCC4=CC(=O)CCC4=C3C=C[C@@]21C [R1881] | decreased | – |
